# According to US9526785B2, “Pharmaceuticals for oral delivery” (Enteris BioPharma, Inc., priority 2013, dated 2016):
# Where two headings read alike, the source gives them in different places.
# Assays:
# [1] = Tigecycline plasma PK after IV bolus in dogs; type: in vivo, Beagle dogs; conditions: female, beagle, dog, plasma; for AUC(0-t) / Cmax: iv
# Method: Adult beagle dogs weighing approximately 9 to 15 kg were used in the study. […] Room temperature was set to be maintained between approximately 20±5° C. Relative humidity was monitored but not controlled.
# TEKLAD™ Certified Canine Diet was provided once daily in amounts (˜400 grams) appropriate for the size and age of the animals. Tap water was available ad libitum via automatic watering device or water bowls.
# Doses are expressed in terms of free net tigecycline content. […] Oral dosing of enteric-coated capsules was accomplished by administering them to the back of the dog's mouth, followed by a chase of 5 mL water to ensure swallowing.
# Water was provided ad libitum. […] Subsequently, each group of animals was dosed based on the protocol, i.e. either IV, or PO by capsule.
# Minocycline (VWR international) was used as an internal standard. Sample processing/clean-up of plasma samples was carried out offline by protein precipitation with acidified acetonitrile using 0.5% trifluoroacetic acid (TFA).
# The HPLC system consisted of Shimadzu SIL-HTc HPLC system equipped with dual Shimadzu LC-10ADvp isopumps, a Shimadzu CTO-10ASvp column temperature controller and a Shimadzu SPD-10Avp variable wavelength detector. […] Mobile phase A consisted of 23 mM phosphate buffer pH 2.5 with 4 mM 1-octanesulfonic acid, while mobile phase B consisting of 90% acetonitrile, 10% water, with 2 mM 1-octanesulfonic acid. […] The total runtime was 18 minutes per sample. The mobile phase flow rate was 1.2 mL/min. Detection was performed using the SPD-10Avp variable wavelength detector set at 350 nm, with a sensitivity of 0.001 aufs.
# The samples were then centrifuged under refrigeration at 13 k rpm for 5 minutes. The supernatant was taken and the liquid removed to dryness under nitrogen in a turbovap. The dried extract was reconstituted in 60 μL of mobile phase A and the suspension was further centrifuged at 5 k rpm for 5 minutes to pellet any insoluble matter. The resulting supernatant was then injected onto the LC.
# The unknown concentration in dog plasma samples was determined by interpolation of the peak area ratios of analyte:internal standard versus the ratio of their nominal concentrations into the regression line obtained from calibration standards spiked in pooled dog plasma. No regression weighting was used for the calculations. […] The calibration curve covered the range of 0.05 μg/mL to 5 μg/mL.
# It should be noted however, that when the method was transferred to an older HPLC system (equipped with a Shimadzu SCT-10Avp system controller and SIL-10A autoinjector), the time program was further altered such that the gradient went to 38% mobile phase B to account to system design changes. All other parameters remained unchanged.
# Tigecycline PK parameters for individual dogs were calculated using non-compartmental analysis with PK Functions for Microsoft Excel.
# [2] = reported; in humans; cited from earlier work
# [3] = intravenous, 1 mg, Tigecycline Plasma Concentration, 1 mg IV in PBS (0.08 mg/kg), SC427, mean
# [4] = intravenous, 5 mg, Tigecycline Plasma Concentration, 5 mg IV in PBS ([…]), SC431, individual dogs
# [5] = intravenous, 5 mg, Tigecycline Plasma Concentration, 5 mg IV in PBS ([…]), SC431, mean
smiles,measurement,setting,value
CN(C)c1cc(NC(=O)CNC(C)(C)C)c(O)c2c1C[C@H]1C[C@H]3[C@H](N(C)C)C(O)=C(C(N)=O)C(=O)[C@@]3(O)C(O)=C1C2=O [Tigecycline],concentration at 120 min,[1]; [3],11.1 ng/mL
same,concentration at 360 min,[1]; [3],1.15 ng/mL
same,concentration at 5 min,[1]; [4],336 ng/mL
same,concentration at 5 min,[1]; [5],335 ng/mL
same,concentration at 10 min,[1]; [4],198 ng/mL
same,concentration at 10 min,[1]; [5],163 ng/mL
same,concentration at 15 min,[1]; [4],122 ng/mL
same,concentration at 15 min,[1]; [5],111 ng/mL
same,concentration at 20 min,[1]; [4],117 ng/mL
same,concentration at 20 min,[1]; [5],94.4 ng/mL
same,concentration at 30 min,"[1]; intravenous, 5 mg, Tigecycline Plasma Concentration, 30 min, 5 mg IV in PBS ([…]), SC431, mean",76.2 ng/mL
same,concentration at 40 min,[1]; [4],72 ng/mL
same,concentration at 40 min,[1]; [5],60.5 ng/mL
same,concentration at 60 min,"[1]; intravenous, 5 mg, Tigecycline Plasma Concentration, 60 min, 5 mg IV in PBS ([…]), SC431, mean",49.1 ng/mL
same,concentration at 90 min,[1]; [4],59.9 ng/mL
same,concentration at 90 min,[1]; [5],47.4 ng/mL
same,concentration at 120 min,[1]; [5],42.3 ng/mL
same,concentration at 360 min,[1]; [5],16.5 ng/mL
same,AUC(0-t),"[1]; 0.08 mg/kg, 1 mg IV in PBS (0.08 mg/kg), SC427, individual dogs, read-out: AUC(0-t)",56.2 ng·h/mL
same,Cmax,"[1]; 0.08 mg/kg, 1 mg IV in PBS (0.08 mg/kg), SC427, individual dogs, read-out: Cmax",86 ng/mL
same,AUC(0-t),"[1]; 0.08 mg/kg, 1 mg IV in PBS (0.08 mg/kg), SC427, mean, read-out: AUC(0-t)",72.4 ng·h/mL
same,Cmax,"[1]; 0.08 mg/kg, 1 mg IV in PBS (0.08 mg/kg), SC427, mean, read-out: Cmax",79.1 ng/mL
same,AUC(0-t),"[1]; 0.08 mg/kg, IV bolus 1 mg (0.08 mg/kg), SC427, read-out: AUC(0-t), mean",72.4 ng·h/mL
same,Cmax,"[1]; 0.08 mg/kg, IV bolus 1 mg (0.08 mg/kg), SC427, read-out: Cmax, mean",79.1 ng/mL
same,AUC(0-t),"[1]; 0.08 mg/kg, IV, Study 1 (SC427), 1 mg (0.08 mg/kg), mean (% CV), read-out: AUC(0-t)",72.4 ng·h/mL
same,Cmax,"[1]; 0.08 mg/kg, IV, Study 1 (SC427), 1 mg (0.08 mg/kg), mean (% CV), read-out: Cmax",79.1 ng/mL
same,Cmax,"[1]; […], 5 mg IV in PBS ([…]), SC431, individual dogs, read-out: Cmax",336 ng/mL
same,AUC(0-t),"[1]; […], 5 mg IV in PBS ([…]), SC431, mean, read-out: AUC(0-t)",411 ng·h/mL
same,Cmax,"[1]; […], 5 mg IV in PBS ([…]), SC431, mean, read-out: Cmax",335 ng/mL
same,AUC(0-t),"[1]; […], IV bolus 5 mg ([…]), SC431, read-out: AUC(0-t), mean",411 ng·h/mL
same,Cmax,"[1]; […], IV bolus 5 mg ([…]), SC431, read-out: Cmax, mean",335 ng/mL
same,AUC(0-t),"[1]; […], IV, Study 2 (SC431), 5 mg ([…]), mean (% CV), read-out: AUC(0-t)",411 ng·h/mL
same,Cmax,"[1]; […], IV, Study 2 (SC431), 5 mg ([…]), mean (% CV), read-out: Cmax",335 ng/mL
same,Tmax,"[1]; IV bolus 1 mg (0.08 mg/kg), SC427, read-out: Tmax, mean (converted)",5 min
same,Tmax,"[1]; IV bolus 5 mg (0.42 mg/kg), SC431, read-out: Tmax (converted)",5 min
same,single dose half-life,[2],approximately 20 hours
